Reference: PubChem BioAssay (NCI)
Several values for one entry are separate records, joined by “and”; a condition that tells them apart may be missing. Equal values may be shown once.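 Method: 48-hour compound exposure of cells in 96-well plates, five concentrations, linear interpolation of endpoints. At the GI50, growth is halved. TGI denotes the concentration required for complete inhibition of growth.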

Tests used:
Test in all cases: NCI anticancer screen, dose series, 48 h
DLD-1 colon = system: DLD-1 colon
DMS 114 small cell lung = system: DMS 114 small cell lung
DMS 273 small cell lung = system: DMS 273 small cell lung
KM20L2 colon = system: KM20L2 colon
LXFL 529 NSCLC = system: LXFL 529 NSCLC
RXF-631 renal = system: RXF-631 renal
SNB-78 CNS = system: SNB-78 CNS
XF 498 CNS = system: XF 498 CNS
MDA-MB-435 = system: MDA-MB-435

Compound	TGI (DLD-1 colon)	TGI (DMS 114 small cell lung)	TGI (DMS 273 small cell lung)	TGI (KM20L2 colon)	TGI (LXFL 529 NSCLC)	TGI (RXF-631 renal)	TGI (SNB-78 CNS)	TGI (XF 498 CNS)	TGI (MDA-MB-435)	GI50 (DMS 114 small cell lung)	GI50 (KM20L2 colon)	GI50 (DLD-1 colon)	GI50 (XF 498 CNS)	GI50 (DMS 273 small cell lung)	GI50 (SNB-78 CNS)	GI50 (LXFL 529 NSCLC)
Clc1ccc(Cl)c2[s+]snc12	> 100 µM	> 66.8 µM	> 62.7 µM	> 100 µM	> 100 µM	> 100 µM	> 100 µM	> 100 µM								
O=C1NC(=S)NC(=O)C1=Cc1cc2c(cc1[N+](=O)[O-])OCO2	> 100 µM	87.3 µM	> 100 µM	> 100 µM		> 100 µM	> 100 µM									
CCCCCCCCCCCCCCCCCC(=O)OCC(CN(C)CCN(C)C)OC(=O)CCCCCCCCCCCCCCCCC (stereo not drawn)	> 100 µM	> 100 µM	> 100 µM	> 100 µM	> 100 µM	> 100 µM	> 100 µM									
COC(=O)C1CC(C(=O)OC)c2nc3cc(C)ccc3nc21 (stereo not drawn)	> 100 µM	> 100 µM	> 100 µM	> 100 µM	> 100 µM	> 100 µM	> 100 µM	> 100 µM								
N#CC(C(=O)/C(=N/N)C(C#N)c1ccc(Cl)cc1)c1ccc(Cl)cc1 (stereo not drawn)	> 100 µM	> 100 µM		> 100 µM	> 100 µM	> 100 µM	> 100 µM	> 100 µM								
CCCN(CCCCC(NC(C)=O)C(=O)NCc1ccccc1)C(=O)NCCCl (stereo not drawn)	> 100 µM	> 100 µM	> 100 µM	> 100 µM	> 100 µM	> 100 µM		> 100 µM								
O=C(/C=C/c1ccc(OCC(=O)N2CCN(c3ccccc3)CC2)cc1)c1ccc(Cl)cc1	> 100 µM	> 100 µM	> 100 µM	> 100 µM	> 100 µM	> 100 µM	82.8 µM		> 100 µM							
CCOc1ccc(N=Cc2cccc3cccnc23)cc1	> 100 µM	> 100 µM	> 100 µM	> 100 µM	> 100 µM	> 100 µM	> 100 µM	> 100 µM								
COC(=O)C1=C(C)N(NC(N)=O)C2(N)N(NC(N)=O)C(C)=C(C(=O)OC)C12C(=O)OC (stereo not drawn)	> 100 µM	> 100 µM	> 100 µM	> 100 µM	> 100 µM	> 100 µM	> 100 µM	> 100 µM								
COc1ccc2[nH]c(-c3ccccn3)cc(=O)c2c1	> 100 µM	71.4 µM		> 100 µM	> 100 µM	> 100 µM	> 100 µM			22.6 µM	35.1 µM					
CC(O)/C=C/C(CCC(C)CO)C(C)C (stereo not drawn)	> 100 µM	> 100 µM	> 100 µM		> 100 µM	> 100 µM	> 100 µM	> 100 µM								
CC1OC(n2ncc(=O)[nH]c2=O)C=CC1=O (stereo not drawn)	> 100 µM			> 100 µM	> 100 µM	32.5 µM and 43.5 µM	86.8 µM and > 100 µM	> 100 µM			> 100 µM and 40.7 µM	77.2 µM and 31.2 µM	54.8 µM and 22.9 µM			
C/C(O)=C(\N=O)C(=O)NCCc1ccccc1	> 100 µM	> 60 µM	> 93.4 µM	> 100 µM	> 100 µM		> 100 µM	> 31.6 µM								
CC(=O)OC1C(=O)C(O)C(C)OC1O[C@@H]1C[C@@]2(C)[C@@H]3CC=C4[C@@H](C[C@H](O)C(=O)C4(C)C)[C@]3(C)C(=O)C[C@]2(C)[C@H]1[C@@](C)(O)C(=O)/C=C/C(C)(C)O (stereo partly drawn)	> 10 µM			8.3 µM	> 10 µM	7.85 µM		0.64 µM						0.0452 µM	0.0626 µM	
CCN1C2=NC(=O)N(C)C(=O)C2(Cl)C(C(SC)S(=O)(=O)c2ccc(C)cc2)c2ccccc21 (stereo not drawn)	> 100 µM	> 100 µM	> 100 µM	> 100 µM	59.3 µM	51.2 µM	58.3 µM	> 100 µM								
Cc1cccc(C(C)(C)C)c1NC(=O)C(=O)C(C(=O)/C=C\c1ccccc1)C1OC(=O)c2ccccc21 (stereo not drawn)	> 100 µM	> 100 µM		> 100 µM	> 100 µM	> 100 µM	> 100 µM	> 100 µM								
CC(C)N(C(=O)C12C3C4C5(C#N)C3C1(I)C5C42I)C(C)C (stereo not drawn)	> 100 µM	> 59.7 µM	> 100 µM	> 100 µM	> 100 µM		> 100 µM	> 100 µM								
CSc1nc(NC2OCC(OC(C)=O)C(OC(C)=O)C2OC(C)=O)c2c(OC(C)=O)c(C)c(=O)oc2n1 (stereo not drawn)	> 100 µM	> 100 µM		> 100 µM	> 100 µM	> 100 µM	> 100 µM	> 100 µM								
O=S(=O)([O-])c1cccc2cccc(N=Cc3ccccc3[O-])c12.O=S(=O)([O-])c1cccc2cccc(N=Cc3ccccc3[O-])c12.[O]=[U]=[O]	> 100 µM	> 100 µM	> 100 µM	> 100 µM	> 100 µM		> 100 µM	> 100 µM		54 µM	> 100 µM	> 100 µM	> 100 µM	42.7 µM	> 100 µM	54.5 µM
